# Read-outs that look alike come from different tables or passages of the source.
# Assays:
# [1] = tested on: Acinetobacter baumanii ATCC 19606, DSM 30007; test: Antibacterial microdilution broth method (EUCAST); format: cell-based; conditions: Acinetobacter baumannii
# [2] = tested on: Staphylococcus aureus spp.aureus ATCC 29213, CCM 4223; test: Antibacterial microdilution broth method (EUCAST); format: cell-based; conditions: read-out: MIC SA
# [3] = tested on: Candida tropicalis ATCC 750, CCM 8264; test: Antifungal microdilution broth method (EUCAST); format: cell-based; conditions: read-out: MIC CT
# [4] = tested on: Candida albicans ATCC 24433, CCM 8320; test: Antifungal microdilution broth method (EUCAST); format: cell-based
# [5] = tested on: Klebsiella pneumoniae ATCC 10031, CCM 4415; test: Antibacterial microdilution broth method (EUCAST)
# [6] = tested on: Aspergillus fumigatus ATCC 204305; test: Antifungal microdilution broth method (EUCAST); format: cell-based; conditions: read-out: MIC AF
# [7] = tested on: Candida parapsilosis ATCC 22019, CCM 8260; test: Antifungal microdilution broth method (EUCAST); format: cell-based; conditions: Lodderomyces parapsilosis
# HepG2 cells = test: HepG2 cytotoxicity, CellTiter 96 (MTS) assay; format: cell-based, human; conditions: for IC50: Homo sapiens, HepG2, 24 h, read-out: HepG2 IC50
# [8] = tested on: Candida krusei ATCC 6258, CCM 8271; test: Antifungal microdilution broth method (EUCAST); format: cell-based; conditions: Pichia kudriavzevii
# [9] = tested on: Trichophyton interdigitale ATCC 9533, CCM 8377; test: Antifungal microdilution broth method (EUCAST); format: cell-based; conditions: read-out: MIC TI
# [10] = tested on: Mycobacterium tuberculosis H37Ra ITM-M006710 (ATCC 9431); test: Microdilution broth, modified Microplate Alamar Blue Assay, whole cell growth inhibition; format: cell-based; conditions: Mycobacterium tuberculosis; in vitro, Middlebrook 7H9 broth, resazurin; read-out: MIC Mtb H37Ra
# [11] = tested on: Mycobacterium aurum DSM 43999 (ATCC 23366); test: as above; format: cell-based; conditions: Mycolicibacterium aurum, read-out: MIC Mycobacterium aurum
# [12] = tested on: Mycobacterium smegmatis DSM 43465 (ATCC 607); test: as above; format: cell-based; conditions: Mycolicibacterium smegmatis, read-out: MIC Mycobacterium smegmatis
# [13] = tested on: Staphylococcus aureus methicillin resistant ATCC 43300, CCM 4750; test: microbe, parasite or virus in culture; format: cell-based; conditions: ATCC 43300 / CCM 4750 / MRSA, read-out: MIC MRSA
# [14] = tested on: Pseudomonas aeruginosa ATCC 27853, CCM 3955; test: Antibacterial microdilution broth method (EUCAST); format: cell-based; conditions: read-out: MIC PA
# [15] = tested on: Aspergillus flavus CCM 8363; test: Antifungal microdilution broth method (EUCAST); format: cell-based; conditions: read-out: MIC AFla
# [16] = tested on: Staphylococcus epidermidis ATCC 12228, CCM 4418; test: Antibacterial microdilution broth method (EUCAST); format: cell-based; conditions: read-out: MIC SE
# [17] = tested on: Enterococcus faecalis ATCC 29212, CCM 4224; test: Antibacterial microdilution broth method (EUCAST); format: cell-based; conditions: read-out: MIC EF
# [18] = tested on: Absidia corymbifera CCM 8077 (Lichtheimia corymbifera); test: Antifungal microdilution broth method (EUCAST); format: cell-based; conditions: read-out: MIC AC
# [19] = tested on: Escherichia coli ATCC 25922, CCM 3954; test: Antibacterial microdilution broth method (EUCAST); format: cell-based; conditions: read-out: MIC EC
compound,measurement,setting,value
"CCCCNc1cnc(C(=O)Nc2ccc(O)cc2)cn1 [Compound 3b, 5-(Butylamino)pyrazine-N-(4-hydroxyphenyl)-2-carboxamide]",MIC,[1]; 24h,> 500 µM
same,MIC,[1]; 48h,> 500 µM
same,MIC,[2]; 24 h,> 500 µM
same,MIC,[2]; 48 h,> 500 µM
same,MIC,[3]; 24 h,> 250 µM
same,MIC,[3]; 48 h,> 250 µM
same,MIC,"[4]; 24 h, read-out: MIC CA",62.5 µM
same,MIC,"[4]; 48 h, read-out: MIC CA",62.5 µM
same,MIC,[4]; read-out: MIC CA (Candida albicans),62.5 µM
same,melting point,,208 to 211.4 °C
same,MIC KP,[5]; 24h,> 500 µM
same,MIC KP,[5]; 48h,> 500 µM
same,MIC,"[6]; ATCC204305, 24 h",> 250 µM
same,MIC,"[6]; ATCC204305, 48 h",> 250 µM
same,MIC,"[7]; 24 h, read-out: MIC CP",250 µM
same,MIC,"[7]; 48 h, read-out: MIC CP",250 µM
same,MIC,[7]; read-out: MIC CP (Candida parapsilosis),250 µM
same,IC50,HepG2 cells,378 µM
same,"SI, selectivity index",HepG2 cells; IC50 (HepG2)/MIC against Mtb H37Ra (in µM),3.46
same,MIC,"[8]; 24 h, read-out: MIC CK",> 250 µM
same,MIC,"[8]; 48 h, read-out: MIC CK",> 250 µM
same,MIC,[8]; read-out: MIC CK (Candida krusei),> 250 µM
same,MIC,[9]; 72 h,> 250 µM
same,MIC,[9]; 120 h,> 250 µM
same,MIC,[10],31.2 µg/mL
same,MIC,[11],≥ 500 µg/mL
same,MIC,[12],≥ 500 µg/mL
same,MIC,[13]; 24 h,> 500 µM
same,MIC,[13]; 48 h,> 500 µM
same,MIC,[14]; 72 h,> 500 µM
same,MIC,[14]; 120 h,> 500 µM
same,MIC,"[15]; CCM8363, 24 h",> 250 µM
same,MIC,"[15]; CCM8363, 48 h",> 250 µM
same,MIC,[16]; 24 h,> 500 µM
same,MIC,[16]; 48 h,> 500 µM
same,MIC,[17]; 24 h,> 500 µM
same,MIC,[17]; 48 h,> 500 µM
same,MIC,"[18]; CCM8077, 24 h",> 250 µM
same,MIC,"[18]; CCM8077, 48 h",> 250 µM
same,MIC,[19]; 24 h,> 500 µM
same,MIC,[19]; 48 h,> 500 µM
"CCCCCCCCNc1cnc(C(=O)Nc2cccc(O)c2)cn1 [Compound 2f, N-(3-hydroxyphenyl)-5-(octylamino)pyrazine-2-carboxamide]",MIC,[1]; 24h,> 125 µM
same,MIC,[1]; 48h,> 125 µM
same,MIC,[2]; 24 h,> 125 µM
same,MIC,[2]; 48 h,> 125 µM
same,MIC,[3]; 24 h,> 125 µM
same,MIC,[3]; 48 h,> 125 µM
same,MIC,"[4]; 24 h, read-out: MIC CA",> 125 µM
same,MIC,"[4]; 48 h, read-out: MIC CA",> 125 µM
same,melting point,,223 to 225.9 °C
same,MIC KP,[5]; 24h,> 125 µM
same,MIC KP,[5]; 48h,> 125 µM
same,MIC,"[6]; ATCC204305, 24 h",> 125 µM
same,MIC,"[6]; ATCC204305, 48 h",> 125 µM
same,MIC,"[7]; 24 h, read-out: MIC CP",> 125 µM
same,MIC,"[7]; 48 h, read-out: MIC CP",> 125 µM
same,IC50,HepG2 cells,> 50 µM
same,MIC,"[8]; 24 h, read-out: MIC CK",> 125 µM
same,MIC,"[8]; 48 h, read-out: MIC CK",> 125 µM
same,MIC,[9]; 72 h,> 125 µM
same,MIC,[9]; 120 h,> 125 µM
same,MIC,[10],≥ 500 µg/mL
same,MIC,[11],≥ 500 µg/mL
same,MIC,[12],250 µg/mL
same,MIC,[13]; 24 h,> 125 µM
same,MIC,[13]; 48 h,> 125 µM
same,MIC,[14]; 72 h,> 125 µM
same,MIC,[14]; 120 h,> 125 µM
same,MIC,"[15]; CCM8363, 24 h",> 125 µM
same,MIC,"[15]; CCM8363, 48 h",> 125 µM
same,MIC,[16]; 24 h,> 125 µM
same,MIC,[16]; 48 h,> 125 µM
same,MIC,[17]; 24 h,> 125 µM
same,MIC,[17]; 48 h,> 125 µM
same,MIC,"[18]; CCM8077, 24 h",> 125 µM
same,MIC,"[18]; CCM8077, 48 h",> 125 µM
same,MIC,[19]; 24 h,> 125 µM
same,MIC,[19]; 48 h,> 125 µM
"CCCCCNc1cnc(C(=O)Nc2ccc(C)cc2)cn1 [Compound 4c, 5-(Pentylamino)-N-(p-tolyl)pyrazine-2-carboxamide]",MIC,[1]; 24h,> 500 µM
same,MIC,[1]; 48h,> 500 µM
same,MIC,[2]; 24 h,> 500 µM
same,MIC,[2]; 48 h,> 500 µM
same,MIC,[3]; 24 h,> 125 µM
same,MIC,[3]; 48 h,> 125 µM
same,MIC,"[4]; 24 h, read-out: MIC CA",> 125 µM
same,MIC,"[4]; 48 h, read-out: MIC CA",> 125 µM
same,melting point,,155.9 to 156.6 °C
same,MIC KP,[5]; 24h,> 500 µM
same,MIC KP,[5]; 48h,> 500 µM
same,MIC,"[6]; ATCC204305, 24 h",> 125 µM
same,MIC,"[6]; ATCC204305, 48 h",> 125 µM
same,MIC,"[7]; 24 h, read-out: MIC CP",> 125 µM
same,MIC,"[7]; 48 h, read-out: MIC CP",> 125 µM
same,IC50,HepG2 cells,> 25 µM
same,MIC,"[8]; 24 h, read-out: MIC CK",> 125 µM
same,MIC,"[8]; 48 h, read-out: MIC CK",> 125 µM
same,MIC,[9]; 72 h,> 125 µM
same,MIC,[9]; 120 h,> 125 µM
same,MIC,[10],≥ 500 µg/mL
same,MIC,[11],≥ 500 µg/mL
same,MIC,[12],≥ 500 µg/mL
same,MIC,[13]; 24 h,> 500 µM
same,MIC,[13]; 48 h,> 500 µM
same,MIC,[14]; 72 h,> 500 µM
same,MIC,[14]; 120 h,> 500 µM
same,MIC,"[15]; CCM8363, 24 h",> 125 µM
same,MIC,"[15]; CCM8363, 48 h",> 125 µM
same,MIC,[16]; 24 h,> 500 µM
same,MIC,[16]; 48 h,> 500 µM
same,MIC,[17]; 24 h,> 500 µM
same,MIC,[17]; 48 h,> 500 µM
same,MIC,"[18]; CCM8077, 24 h",> 125 µM
same,MIC,"[18]; CCM8077, 48 h",> 125 µM
same,MIC,[19]; 24 h,> 500 µM
same,MIC,[19]; 48 h,> 500 µM

# Source: paper PMC7180572, “5-Alkylamino-N-phenylpyrazine-2-carboxamides: Design, Preparation, and Antimycobacterial Evaluation” (Molecules, 2020)
